Data published in patent US20040082550A1, “Tropolone derivative” (priority 2000, published 2004).

Tests used:
[1] = tested on: promyelocyte leukemia cell strain HL-60; assay: Test for induction of cell differentiation in HL-60 cells (NBT reduction ability); assay type: cell-based; conditions: for Ratio of cells for which differentiation was induced by each compound alone (%): calculated from NBT reduction ability; for Ratio of cells for which differentiation was induced by each compound in combination with 1 × 10^−7 M of HX630 (%): in combination with 1×10^−7 M HX630 (retinoid synergist)
Description: For each of the compounds of the examples, action for inducing cell differentiation was examined for each alone and in combination with 1×10^−7 M of HX630. According to the methods described in Japanese Patent Unexamined Publication (KOKAI) No. (Sho)61-76440/1986, differentiation of the cells of promyelocyte leukemia cell strain HL-60 into granulocytic series cells was determined based on morphological change and measurement of ability to reduce nitro blue tetrazolium (NBT). The ratios (%) of differentiated cells shown in the following table are those calculated from NBT reduction ability. HX630 is a retinoid synergist that enhances actions of retinoids, and the concentrations of −8, −7 and −6 mean that each compound was added at concentrations of 1×10^−8 M, 1×10^−7 M and 1×10^−6 M, respectively.

[2] = compound concentration -6 (1×10^−6 M)
[3] = compound concentration -7 (1×10^−7 M)
[4] = compound concentration -8 (1×10^−8 M)

Row | Structure (SMILES) | Ratio of cells for which differentiation was induced by each compound alone (%) ([1]; concentration -6 (1×10^−6 M)) | Ratio of cells for which differentiation was induced by each compound alone (%) ([1]; concentration -7 (1×10^−7 M)) | Ratio of cells for which differentiation was induced by each compound alone (%) ([1]; concentration -8 (1×10^−8 M)) | Ratio of cells for which differentiation was induced by each compound in combination with 1 × 10^−7 M of HX630 (%) [1, 2] [%] | Ratio of cells for which differentiation was induced by each compound in combination with 1 × 10^−7 M of HX630 (%) [1, 3] [%] | Ratio of cells for which differentiation was induced by each compound in combination with 1 × 10^−7 M of HX630 (%) [1, 4] [%] | melting point [°C]
1 | CC1(C)CCC(C)(C)c2cc(-c3ccc(O)c(=O)cc3)ccc21 [Tp05] | 13 | 0.5 | 0.6 | 35 | 1.2 | 1.2 | 161
2 | COc1ccc(C(=O)Nc2ccc(O)c(=O)cc2)cc1C12CC3CC(CC(C3)C1)C2 [Tp88] | 46 | 1.2 | 0.9 | 62 | 14 | 2.6 | 142
3 | CC1(C)CCC(C)(C)c2cc3cc(-c4ccc(O)c(=O)cc4)ccc3cc21 [Tp250] | 56 | 66 | 63 | 79 | 84 | 91 | 
4 | CC1(C)CCC(C)(C)c2cc3sc(-c4ccc(O)c(=O)cc4)cc3cc21 [Tp260] | 55 | 20 | 10 | 67 | 83 | 91 | 
